From patent publication US20260265305A1, “POLYPEPTIDE DERIVATIVE FOR ORAL DELIVERY” (Hangzhou Sciwind Biosciences Co., Ltd., priority 2023, published 2026)
Where two headings read alike, the source gives them in different places. Numbered stars: 1 amine (or outer) side, 2 acyl side, 3 side chain; on linkers, the order of the positions; unused ones are H or OH. Peptide text beside a SMILES is read from it. * marks the point of attachment. C20 diacid = O=C(O)CCCCCCCCCCCCCCCCCCC(=O)*; γGlu = O=C(O)[C@H](CCC(=O)[*:2])N[*:1]; βAsp = O=C(O)[C@H](CC(=O)[*:2])N[*:1]; Trx = NC[C@H]1CC[C@H](C(=O)O)CC1; AEEA = NCCOCCOCC(=O)O; Inp = O=C(O)C1CCNCC1

Assays:
amylin receptor (hAMY3R) = molecular target: T1, amylin receptor (hAMY3R) (Homo sapiens, UniProt O60896+P30988); assay: Amylin receptor agonism testing, CRE-luciferase assay in stably transfected CHO-K1/Ga15/AMY3 cells; assay type: cell-based; conditions: for Fold change in activity against hAMY3R: relative to D1 as benchmark
T1 construct: host or cells: CHO-K1/Ga15/AMY3 cells, further stably transfected with a CRE-luciferase plasmid
T1 sequence (P30988 25-474): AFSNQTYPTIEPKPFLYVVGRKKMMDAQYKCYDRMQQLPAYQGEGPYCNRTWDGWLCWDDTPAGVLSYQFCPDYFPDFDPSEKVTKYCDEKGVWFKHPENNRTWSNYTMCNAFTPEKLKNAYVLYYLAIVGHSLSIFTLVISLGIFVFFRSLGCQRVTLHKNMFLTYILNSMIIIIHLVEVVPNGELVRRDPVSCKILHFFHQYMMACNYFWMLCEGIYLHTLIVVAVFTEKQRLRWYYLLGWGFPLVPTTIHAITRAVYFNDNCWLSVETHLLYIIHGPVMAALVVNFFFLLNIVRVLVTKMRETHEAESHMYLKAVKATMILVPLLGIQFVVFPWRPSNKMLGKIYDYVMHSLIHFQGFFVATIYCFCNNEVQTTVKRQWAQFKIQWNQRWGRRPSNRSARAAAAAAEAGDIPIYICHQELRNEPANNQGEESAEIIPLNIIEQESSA
T1 sequence (O60896 24-148): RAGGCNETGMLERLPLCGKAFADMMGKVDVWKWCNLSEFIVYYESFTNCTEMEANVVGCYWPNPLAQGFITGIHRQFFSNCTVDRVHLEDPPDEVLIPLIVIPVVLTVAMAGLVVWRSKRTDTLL
From the text: The objective of this assay is to test the potency of the polypeptide derivatives in the present application on amylin and calcitonin receptors in vitro using a luciferase assay.
Using the standard protocol for construction of an amylin receptor/CRE-luc cell line, CHO-K1/Ga15/AMY3 cells (purchased from GenScript, with the calcitonin receptor and the receptor activity modifying peptide (RAMP) constructed already) were transfected with a plasmid containing a luciferase expression cassette driven by multiple copies of cAMP response elements (CREs). The cells were cultured in an F12 medium containing 200 ug/mL Zeocin, 2 ug/mL puromycin, 100 ug/mL hygromycin, and 400 ug/mL G418 to afford a stably transfected amylin receptor/CRE-luc cell line.
(§1) To each well of a white 96-well plate was added 50 μL of the tested sample solution at a respective concentration.
The stably transfected amylin receptor/CRE-luc CHO cells were resuspended in the growth medium at a certain density, and 50 μL of the cell suspension was added at a density of about 20,000 cells per well to the white 96-well plate containing the tested sample solution. After incubation of 24 hours at 37° C. and 5% CO2, 100 μL of a Luciferase substrate was added to each well, incubated for 3 minutes, and finally was tested for luminescence on SpectraMax L (Molecular Devices) with the software SoftMax Pro 7.0.3 GxP. A standard curve was plotted using the fluorescent intensities for calculation of EC50.

[1] = molecular target: T2, calcitonin receptor (hCTR) (Homo sapiens, UniProt P30988); assay: Calcitonin receptor agonism, CRE-luciferase assay in stably transfected CHO-K1/CALCR/Ga15 cells; assay type: cell-based; conditions: for Fold change in activity against hCTR: relative to D1 as benchmark
T2 construct: host or cells: CHO-K1/CALCR/Ga15 cells, further stably transfected with a CRE-luciferase plasmid
T2 sequence (P30988 25-474): T1 sequence (P30988 25-474)
Procedure: Using the standard protocol, CHO-K1/CALCR/Ga15 cells (purchased from GenScript, with the calcitonin receptor constructed already) were transfected with a plasmid containing a luciferase expression cassette driven by multiple copies of cAMP response elements (CREs). The cells were cultured in an F12 medium containing 200 ug/mL Zeocin, 2 ug/mL puromycin, and 100 ug/mL hygromycin to afford a stably transfected calcitonin receptor/CRE-luc cell line.
as §1
The stably transfected calcitonin receptor/CRE-luc CHO cells were resuspended in the growth medium at a certain density, and 50 μL of the cell suspension was added at a density of about 20,000 cells per well to the white 96-well plate containing the tested sample solution. After incubation of 24 hours at 37° C. and 5% CO2, 100 μL of a Luciferase substrate was added to each well, incubated for 3 minutes, and finally was tested for luminescence on SpectraMax L (Molecular Devices) with the software SoftMax Pro 7.0.3 GxP. A standard curve was plotted using the fluorescent intensities for calculation of EC50.

[2] = Animal study: weight change and accumulated food intake in SD rats after subcutaneous dosing; assay type: in vivo, SD (Sprague Dawley) rats; conditions: 10 nmol/kg subcutaneous; for effect on body weight of SD rats: FIGS. 1 and 3; for effect on accumulated food intake of SD rats: FIGS. 2 and 4
From the text: SD (Sprague Dawley) rats weighing 200-250 g were used for this study. The rats were received at least 10-14 days before the study began such that they could accommodate to the experimental environment. After arrival, they were exposed to a reversed light/dark cycle (i.e., lights switched off in daytime and on in nighttime) for two weeks and were individually housed for the first week so as to ensure high data accuracy and test sensitivity. Throughout the acclimation and experiment period, the rats had free access to food and water. 5-8 rats were assigned to each testing group for the derivatives and were subcutaneously administered the derivatives at a dose of 10 nmol/kg or a vehicle (20 mM phosphate buffer, PB, pH 7.0), and the dosing timepoint was recorded for each group. After dosing, the rats were put back into cages where they were housed and could have access to food and water. Food consumption and weight change of the rats were recorded online or manually every 24 hours. Percent of weight change=(BWTn−BWT0)/BWT0*100%, wherein BW represented the value of body weight, and T0 and Tn represented the time point of dosing and n hours post dose respectively. Dots in the figures were represented utilizing mean±standard error of the mean (SEM).

[3] = Heat accelerated stability assay of polypeptide solutions (40° C., pH about 7.4), reversed phase chromatography; assay type: physicochemical; conditions: 40° C.; for Concentration change on 7 d / Concentration change on 26 d: pH about 7.4, 1 mg/mL; for Concentration change on 7 d / Purity change on 7 d: Day 7; for Concentration change on 26 d / Purity change on 26 d: Day 26; for Purity change on 7 d / Purity change on 26 d: reversed phase chromatography 214 nm; for Purity change on 7 d: purity on 7 d − purity on 0 d; for Purity change on 26 d: purity on 26 d − purity on 0 d
How it was run: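 Polypeptide derivative lyophilisate (1 mg/mL) with sodium dihydrogen phosphate (1.42 mg/mL) in water, pH about 7.4, sterile-filtered, vialed and held at 40° C; sampled on days 7 and 26. After centrifugation, concentration and purity (target/total peak area) by C18 RP-HPLC, TFA/ACN gradient, 280 and 214 nm.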

[4] = incubation of 24 hours, Table 4, read-out: EC50, activity against the calcitonin receptor in cells
[5] = incubation of 24 hours, Table 3, read-out: EC50, activity against the amylin receptor in cells

SMILES	EC50 (amylin receptor (hAMY3R); Table 5 integrated analysis, read-out: hAMY3R EC50)	Fold change in activity against hAMY3R (amylin receptor (hAMY3R))	EC50 [1, 4]	Fold change in activity against hCTR [1]	effect on body weight of SD rats [2]	effect on accumulated food intake of SD rats [2]	Concentration change on 7 d [3]	Concentration change on 26 d [3]	Purity change on 7 d [3]	Purity change on 26 d [3]	EC50 (amylin receptor (hAMY3R); [5])	EC50 ([1]; Table 5 integrated analysis, read-out: hCTR EC50)
CC(C)C[C@H](NC(=O)[C@H](CCCNC(=N)N)NC(=O)CNC(=O)[C@H](CC(C)C)NC(=O)[C@@H](NC(=O)[C@H](C)NC(=O)[C@@H](NC(=O)[C@H](CO)NC(=O)[C@H](CC(C)C)NC(=O)[C@H](CCC(N)=O)NC(=O)[C@H](CO)NC(=O)[C@H](C)NC(=O)COCCOCCNC(=O)COCCOCCNC(=O)CC[C@H](NC(=O)CCCCCCCCCCCCCCCCCCC(=O)O)C(=O)O)[C@@H](C)O)C(C)C)C(=O)N[C@@H](CO)C(=O)N[C@@H](CC(=O)O)C(=O)N[C@@H](CCC(=O)O)C(=O)N[C@@H](CC(C)C)C(=O)N[C@@H](Cc1c[nH]cn1)C(=O)N[C@@H](CCCNC(=N)N)C(=O)N[C@@H](CC(C)C)C(=O)N[C@@H](CCC(N)=O)C(=O)N[C@@H](CC(=O)O)C(=O)N[C@@H](Cc1ccc(O)cc1)C(=O)N1CCC[C@H]1C(=O)N[C@@H](CCCNC(=N)N)C(=O)N[C@H](C(=O)N[C@@H](CC(=O)O)C(=O)N[C@H](C(=O)NCC(=O)N[C@@H](CO)C(=O)NCC(=O)N[C@@H](CO)C(=O)N1CCC[C@H]1C(N)=O)C(C)C)[C@@H](C)O [M18] ({C20 diacid-γGlu-AEEA-AEEA}-ASQLSTAVLGRLSDELHRLQDYPRTDVGSGSP-NH2)	16 pM	2.25	69 pM	1.246	apparently further reduced	apparently further reduced	No change (concentration change of less than 1% (denoted as “no change”))	−1.148%	No change	nearly no noticeable change in purity	–	–
CC(C)C[C@H](NC(=O)[C@H](CCCNC(=N)N)NC(=O)CNC(=O)[C@H](CC(C)C)NC(=O)[C@@H](NC(=O)[C@H](C)NC(=O)[C@@H](NC(=O)[C@H](CO)NC(=O)[C@H](CC(C)C)NC(=O)[C@H](CCC(N)=O)NC(=O)[C@H](CO)NC(=O)[C@H](C)NC(=O)COCCOCCNC(=O)COCCOCCNC(=O)C1CCN(C(=O)CCCCCCCCCCCCCCCCCCC(=O)O)CC1)[C@@H](C)O)C(C)C)C(=O)N[C@@H](CO)C(=O)N[C@@H](CC(=O)O)C(=O)N[C@@H](CCC(=O)O)C(=O)N[C@@H](CC(C)C)C(=O)N[C@@H](Cc1c[nH]cn1)C(=O)N[C@@H](CCCNC(=N)N)C(=O)N[C@@H](CC(C)C)C(=O)N[C@@H](CCC(N)=O)C(=O)N[C@@H](CC(=O)O)C(=O)N[C@@H](Cc1ccc(O)cc1)C(=O)N1CCC[C@H]1C(=O)N[C@@H](CCCNC(=N)N)C(=O)N[C@H](C(=O)N[C@@H](CC(=O)O)C(=O)N[C@H](C(=O)NCC(=O)N[C@@H](CO)C(=O)NCC(=O)N[C@@H](CO)C(=O)N1CCC[C@H]1C(N)=O)C(C)C)[C@@H](C)O [M29] ({C20 diacid-Inp-AEEA-AEEA}-ASQLSTAVLGRLSDELHRLQDYPRTDVGSGSP-NH2)	–	6.000	–	0.551	apparently further reduced	apparently further reduced	–	No change (concentration change of less than 1% (denoted as “no change”))	No change	−1.2%	6 pM	156 pM
CC(C)C[C@H](NC(=O)[C@H](CCCNC(=N)N)NC(=O)CNC(=O)[C@H](CC(C)C)NC(=O)[C@@H](NC(=O)[C@H](C)NC(=O)[C@@H](NC(=O)[C@H](CO)NC(=O)[C@H](CC(C)C)NC(=O)[C@H](CCC(N)=O)NC(=O)[C@H](CO)NC(=O)[C@H](C)NC(=O)COCCOCCNC(=O)COCCOCCNC(=O)[C@H]1CC[C@H](CNC(=O)CCCCCCCCCCCCCCCCCCC(=O)O)CC1)[C@@H](C)O)C(C)C)C(=O)N[C@@H](CO)C(=O)N[C@@H](CC(=O)O)C(=O)N[C@@H](CCC(=O)O)C(=O)N[C@@H](CC(C)C)C(=O)N[C@@H](Cc1c[nH]cn1)C(=O)N[C@@H](CCCNC(=N)N)C(=O)N[C@@H](CC(C)C)C(=O)N[C@@H](CCC(N)=O)C(=O)N[C@@H](CC(=O)O)C(=O)N[C@@H](Cc1ccc(O)cc1)C(=O)N1CCC[C@H]1C(=O)N[C@@H](CCCNC(=N)N)C(=O)N[C@H](C(=O)N[C@@H](CC(=O)O)C(=O)N[C@H](C(=O)NCC(=O)N[C@@H](CO)C(=O)NCC(=O)N[C@@H](CO)C(=O)N1CCC[C@H]1C(N)=O)C(C)C)[C@@H](C)O [M27] ({C20 diacid-Trx-AEEA-AEEA}-ASQLSTAVLGRLSDELHRLQDYPRTDVGSGSP-NH2)	–	9.000	–	0.161	apparently further reduced	apparently further reduced	–	−2.286%	No change	−1.27%	–	–
CC(C)C[C@H](NC(=O)[C@H](CCCNC(=N)N)NC(=O)CNC(=O)[C@H](CC(C)C)NC(=O)[C@@H](NC(=O)[C@H](C)NC(=O)[C@@H](NC(=O)[C@H](CO)NC(=O)[C@H](CC(C)C)NC(=O)[C@H](CCC(N)=O)NC(=O)[C@H](CO)NC(=O)[C@H](C)NC(=O)COCCOCCNC(=O)COCCOCCNC(=O)C[C@H](NC(=O)CCCCCCCCCCCCCCCCCCC(=O)O)C(=O)O)[C@@H](C)O)C(C)C)C(=O)N[C@@H](CO)C(=O)N[C@@H](CC(=O)O)C(=O)N[C@@H](CCC(=O)O)C(=O)N[C@@H](CC(C)C)C(=O)N[C@@H](Cc1c[nH]cn1)C(=O)N[C@@H](CCCNC(=N)N)C(=O)N[C@@H](CC(C)C)C(=O)N[C@@H](CCC(N)=O)C(=O)N[C@@H](CC(=O)O)C(=O)N[C@@H](Cc1ccc(O)cc1)C(=O)N1CCC[C@H]1C(=O)N[C@@H](CCCNC(=N)N)C(=O)N[C@H](C(=O)N[C@@H](CC(=O)O)C(=O)N[C@H](C(=O)NCC(=O)N[C@@H](CO)C(=O)NCC(=O)N[C@@H](CO)C(=O)N1CCC[C@H]1C(N)=O)C(C)C)[C@@H](C)O [M25] ({C20 diacid-βAsp-AEEA-AEEA}-ASQLSTAVLGRLSDELHRLQDYPRTDVGSGSP-NH2)	–	2.118	138 pM	0.623	apparently further reduced	apparently further reduced	−1.222%	−2.645%	−2.45%	−5.24%	17 pM	–
